Test results taken from patent US9249148B2, “Tris(hetero)arylpyrazoles and use thereof” (AICURIS GMBH & CO. KG, priority 2012, dated 2016).

How the values were obtained:
Type in all cases: cell-based
[1] = test system: HIV-1NL4-3 wildtype; test: Luminescence Reduction Assay, luciferase reporter virus in MT4 cells; conditions: Human immunodeficiency virus 1, MT4, read-out: EC50 (μM) MT4 cells HIV-1NL4-3 wildtype 2% FBS
Excerpt: (§1) For this assay, HIV-1NL4-3 reporter viruses are used which carry the luciferase164 gene (lu164) in place of the nef gene. The viruses are generated by transfection of 293T cells with the corresponding proviral pNL4-3 plasmid (Lipofectamine Reagent, Invitrogen, Karlsruhe, Germany). Starting from the proviral plasmid DNA, viruses with defined resistance mutations (single or combined) are produced in the reverse transcriptase gene using the “QuikChange II XL Site-Directed Mutagenesis Kit” (Stratagene, Cedar Creek, Tex., USA). Resistance mutations include, among others: L74V, A98G, A98S, L100I, K101E, K103N, V106A, V106I, V106M, V108I, V108A, E138K, V179I, V179D, V179E, Y181C, Y181I, Y188L, G190A, G1905, H221Y, P225H, F227C, F227L, F227V, M230I, M230L, L234I, P236L, N348I, T369A, T369I, T369V. MT4 cells infected with these reporter viruses (NIH AIDS Research and Reference Reagent Program) secrete luciferase into the medium, which enables the luminometric quantification of the virus replication.
(§2) For starting a 96-well MTP, 3 million MT4 cells are pelleted, suspended in 1 ml RPMI 1640 medium without phenol red (Invitrogen, Karlsruhe, Germany)/10% FBS/2 mM L-glutamine/1% Pen/Strep (Invitrogen, Karlsruhe, Germany), and incubated for 2 hours at 37° C. with a suitable quantity of the relevant HIV-1NL4-3 reporter virus (pellet infection). Non-adsorbed viruses are then washed out, and the infected cells are pelleted again and suspended in 8 ml RPMI 1640 medium without phenol red/2% or 10% FBS/2 mM L-glutamine/1% Pen/Strep. From this, 90 μl per well is pipetted into a white 96-well MTP to 10 μl of test substance at a suitable level of dilution. In order to avoid edge effects, the edge wells of the MTP are not used for substance dilutions. The second vertical row of the MTP contains only infected cells (virus control) and the eleventh vertical row only non-infected cells (cell control), each in RPMI 1640 medium without phenol red/2% or 10% FBS/2 mM L-glutamine/1% Pen/Strep. The remaining wells of the MTP contain the compounds in accordance with the invention in various concentrations, starting from the third vertical row, from which the test substances are diluted in 3-step sequences up to the tenth vertical row by a factor of 3^7. The test substances are dissolved in DMSO; the final DMSO concentration in the test formulation is 1%.

[2] = test system: HIV-1NL4-3 K103N-Y181C; test: Luminescence Reduction Assay, luciferase reporter virus with resistance mutations in MT4 cells; conditions: Human immunodeficiency virus 1, MT4, read-out: EC50 (μM) MT4 cells HIV-1NL4-3 K103N-Y181C 2% FBS
Excerpt: as §1, §2

[3] = test system: HIV-1LAI wildtype; test: alamarBlue Viability Assay with HIV-1LAI-infected MT4 cells; conditions: Human immunodeficiency virus 1, 10% FBS
Experimental: For starting a 96-well MTP, 3 million PBLs are pelleted, suspended in 1 ml RPMI 1640 medium/10% FBS/2 mM L-glutamine/1% Pen/Strep and incubated for 2 hours at 37° C. with a suitable quantity of the relevant HIV-1LAI (NIH AIDS Research & Reference Reagent Program, Germantown, USA) (pellet infection). Non-adsorbed viruses are then washed out, and the infected cells pelleted again and suspended in 18 ml RPMI 1640 medium/10% FBS/2 mM L-glutamine/1% Pen/Strep/Interleukin-2 (40 U/ml). From this, 180 μl per well is pipetted into a 96-well MTP to 20 μl of test substance at a suitable level of dilution. Alternatively, the HIV is added after preparation of the substance dilutes in the MTP together with the cells, and is not washed out (supernatant infection). In order to avoid edge effects, the edge wells of the MTP are not used for substance dilutions. The second vertical row of the MTP contains only infected cells (virus control) and the eleventh vertical row only non-infected cells (cell control), each in RPMI 1640 medium/10% FBS/2 mM L-glutamine/1% Pen/Strep/Interleukin-2 (40 U/ml). The remaining wells of the MTP contain the compounds in accordance with the invention in various concentrations, starting from the third vertical row, from which the test substances are diluted in 3-step sequences up to the tenth vertical row by a factor of 3^7. The test substances are dissolved in DMSO; the final DMSO concentration in the test preparation is 1%. The test samples are incubated for 5 days at 37° C./5% CO2. After 5 to 7 days, 50 μl of cell-free supernatant is removed from each well to determine its p24 content using p24 ELISA (HIV-1 p24CA Antigen Capture Assay Kit, NCI-Frederick Cancer Research and Development Center, Frederick, USA). From the resulting values of the photometric analysis (450/620 nm), the EC50 values of the test substances are determined from the resulting dose-response curves using the Prism4 software (GraphPad, San Diego, Calif.) as the concentration of treated infected cells, where the p24 quantity is 50% of the untreated infected cells.
Alternatively, MT4 cells are used in place of PBLs for testing the test substances. HIV-1LAI-infected MT4 cells (MOI 0.01, supernatant infection) are incubated in accordance with the procedure described above in RPMI 1640 medium using 2% or 10% FKS/2 mM L-glutamine/1% Pen/Strep in the presence of the test substances for 5 days at 37° C./5% CO2 (10 μl diluted substance and 90 μl cells/virus per well). 10 μl alamarBlue (Invitrogen, Karlsruhe, Germany) is then added per well and the MTPs are incubated for 3 hours at 37° C. before fluorimetric evaluation is performed (544/590 nm). Using quattroWorkflow software (Quattroresearch, Martinsried, Germany), the EC50 values of the test substances are determined from the resulting dose-response curves as the concentration of treated infected cells in which the fluorescence is 50% of that of the untreated, non-infected cells.

| Compound | EC50 [1] [µM] | EC50 [2] [µM] | EC50 [3] [µM] |
| --- | --- | --- | --- |
| N#Cc1cccc(-c2cc(-c3cccc4c3CNC4=O)nn2-c2ccc(F)cc2)c1 [Example 36] | 0.0848 | 0.0675 | 0.449 |
| O=C1NCc2c1ccnc2-c1cc(-c2cccc(Cl)c2)n(-c2cccc(C(F)(F)F)c2)n1 [Example 37] | 0.0288 | 0.148 | 0.0835 |
| O=C1NCc2c1cccc2-c1cc(-c2cccc(Cl)c2)n(-c2cccc(C(F)(F)F)c2)n1 [Example 38] | 0.18 | 1.18 | 0.948 |
| COc1cccc(-n2nc(-c3nccc4c3CNC4=O)cc2-c2ccnc(Cl)c2)c1 [Example 39] | 0.0075 | 0.0692 | 0.0486 |
| COc1cccc(-n2nc(-c3cccc4c3CNC4=O)cc2-c2ccnc(Cl)c2)c1 [Example 40] | 0.0517 | 0.499 | 0.222 |
| O=C1NCc2c1cccc2-c1cc(-c2cc(F)cc(Cl)c2)n(-c2cccc(Cl)c2)n1 [Example 41] | 0.0112 | 0.152 | 0.0807 |
| O=C1NCc2c1ccnc2-c1cc(-c2cccc(OC(F)F)c2)n(-c2ccc(F)c(Cl)c2)n1 [Example 42] | 0.0098 | 0.0194 | 0.0717 |
| O=C1NCc2c1ccnc2-c1cc(-c2ccc(F)c(OC(F)(F)F)c2)n(-c2cccc(Cl)c2)n1 [Example 43] | 0.0568 | 0.2 | 0.674 |
| O=C1NCc2c1cccc2-c1cc(-c2ccc(F)c(OC(F)(F)F)c2)n(-c2cccc(Cl)c2)n1 [Example 44] | 0.533 | 0.458 | 1.91 |
| O=C1NCc2c1ncnc2-c1cc(-c2cc(Cl)cc(OC(F)(F)F)c2)n(-c2cccnc2)n1 [Example 45] | 0.0005 | 0.0007 | 0.0045 |
| Cc1nc2c(c(-c3cc(-c4cc(Cl)cc(OC(F)(F)F)c4)n(-c4cccnc4)n3)n1)CNC2=O [Example 46] | 0.0004 | 0.0004 | 0.0023 |
